Assay results as given in patent US5985910A, “3- [4- (2- Phenyl-Indole-1-ylmethyl) Phenyl]- Acrylamides as estrogenic agents” (priority 1997, dated 1999).

How the values were obtained:
Ishikawa cells = test: Ishikawa Cell Alkaline Phosphatase Assay; type: cell-based, human; conditions: for % Activation (Compound ± 1 nM 17β-estradiol) (alkaline phosphatase): 10^-6 M compound + 1 nM 17β-estradiol, 48 h (antiestrogen test); for % Activation (alkaline phosphatase): compound alone, 48 h, percent of response related to 1 nM 17β-estradiol
Experimental: Ishikawa Cell Alkaline Phosphatase Assay
(§1) Cell Maintenance and Treatment
Ishikawa cells were maintained in DMEM/F12 (50%:50%) containing phenol red+10% fetal bovine serum and the medium was supplemented with 2 mM Glutamax, 1% Pen/Strap and 1 mM sodium pyruvate. Five days prior to the beginning of each experiment (treatment of cells) the medium was changed to phenol red-free DMEM/F12+10% dextran coated charcoal stripped serum. On the day before treatment, cells were harvested using 0.5% trypsin/EDTA and plated at a density of 5×10^4 cells/well in 96-well tissue culture plates. […] Cells were treated for 48 h prior to assay. […] Sample population for at each dose was n=8.
Alkaline Phosphatase Assay
At the end of 48 h the media is aspirated and cells are washed three times with phosphate buffered saline (PBS). 50 μL of lysis buffer (0.1 M Tris-HCl, pH 9.8, 0.2% Triton X-100) is added to each well. Plates are placed at -80° C. for a minimum of 15 minutes. Plates are thawed at 37° C. followed by the addition of 150 μL of 0.1 M Tris-HCl, pH 9.8, containing 4 mM para-nitrophenylphosphate (pNPP) to each well (final concentration, 3 mM pNPP).
Absorbance and slope calculations were made using the KineticCalc Application program (Bio-Tek Instruments, Inc., Winooski, Vt.). Results are expressed as the mean +/-S.D. of the rate of enzyme reaction (slope) averaged over the linear portion of the kinetic reaction curve (optical density readings every 5 minutes for 30 minutes absorbance reading).
Various compounds were assayed for estrogenic activity by the alkaline phosphatase method and corresponding ED50 values (95% C.I.) were calculated. The four listed in the following were used as reference standards:
A description of such methods is provided by Holinka, C. F., Hata, H., Kuramoto, H. and Gurpide, E. (1986) Effects of steroid hormones and antisteroids on alkaline phosphatase activity in human endometrial cancer cells (Ishikawa Line). Cancer Research, 46:2771-2774, and by Littlefield, B. A., Gurpide, E., Markiewicz, L., McKinley, B. and by Hochberg, R. B. (1990) A simple and sensitive microtiter plate estrogen bioassay based on stimulation alkaline phosphatase in Ishikawa cells; Estrogen action of D5 adrenal steroids. Endocrinology, 6:2757-2762.

uteri = test: Rat Uterotrophic/Antiuterotrophic Bioassay (results headed 3-Day Ovariectomized Rat Model); type: in vivo, rat (Sprague-Dawley)
Experimental: Rat Uterotrophic/Antiuterotrophic Bioassay
Immature Sprague-Dawley rats (female, 18 days old) were tested in groups of six. […] On day 4 the animals were sacrificed by CO2 asphyxiation and their uteri were removed and stripped of excess lipid, any fluid removed and the wet weight determined. A small section of one horn was submitted for histology and the remainder used to isolate total RNA in order to evaluate complement component 3 gene expression.

estrogen receptor [1] = molecular target: T1, estrogen receptor (Homo sapiens, UniProt P03372); test: 2X VIT ERE Transfection (luciferase) Assay in CHO cells; type: cell-based; design: expressed in transfected cells; host or cells: Chinese Hamster Ovary (CHO) cells, stably transfected
T1 sequence (P03372 1-595): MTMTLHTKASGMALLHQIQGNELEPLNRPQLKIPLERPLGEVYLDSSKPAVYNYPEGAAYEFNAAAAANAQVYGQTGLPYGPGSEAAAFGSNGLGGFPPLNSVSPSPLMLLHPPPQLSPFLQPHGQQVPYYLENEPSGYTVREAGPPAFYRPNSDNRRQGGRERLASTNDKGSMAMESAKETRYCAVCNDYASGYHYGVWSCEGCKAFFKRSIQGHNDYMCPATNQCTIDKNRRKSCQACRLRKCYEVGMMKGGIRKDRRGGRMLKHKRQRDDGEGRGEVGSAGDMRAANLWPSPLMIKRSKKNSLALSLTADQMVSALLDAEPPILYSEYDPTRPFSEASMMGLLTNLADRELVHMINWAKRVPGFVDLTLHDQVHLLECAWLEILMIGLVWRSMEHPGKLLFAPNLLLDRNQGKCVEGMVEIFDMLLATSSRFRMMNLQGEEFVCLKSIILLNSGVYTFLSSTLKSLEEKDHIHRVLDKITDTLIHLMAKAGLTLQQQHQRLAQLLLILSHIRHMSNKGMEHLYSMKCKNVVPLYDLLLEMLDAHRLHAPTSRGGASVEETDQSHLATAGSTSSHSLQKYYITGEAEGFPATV
Experimental: 2X VIT ERE Transfection Assay
as §1
Chinese Hamster Ovary cells (CHO) which had been stably transfected with the human estrogen receptor were maintained in DMEM+10% fetal bovine serum (FBS). 48 h prior to treatment the growth medium was replaced with DMEM lacking phenol red +10% dextran coated charcoal stripped FBS (treatment medium). Cells were plated at a density of 5000 cells/well in 96-well plates containing 200 μL of medium/well.
Calcium Phoshate Transfection
Reporter DNA (Promega plasmid pGL2 containing two tandem copies of the vitellogenin ERE in front of the minimal thymidine kinase promoter driving the luciferase gene) was combined with the B-galactosidase expression plasmid pCH110 (Pharmacia) and carrier DNA (pTZ18U) in the following ratio:
20 uL of this mixture was added to each well of cells and remained on the cells for 16 h. […] Each treatment condition was performed on 8 wells (n=8) which were incubated for 24 h prior to the luciferase assay.
After removing the PBS, 25 uL of Promega lysis buffer was added to each well and allowed to stand at room temperature for 15 min, followed by 15 min at -80° C. and 15 min at 37° C. 20 uL of lysate was transferred to an opaque 96 well plate for luciferase activity evaluation and the remaining lysate (5 uL) was used for the B-galactosidase activity evaluation (normalize transfection). The luciferan substrate (Promega) was added in 100 uL aliquots to each well automatically by the luminometer and the light produced (relative light units) was read 10 seconds after addition.
To the remaining 5 uL of lysate 45 uL of PBS was added. Then 50 uL of Promega B-galactosidase 2× assay buffer was added, mixed well and incubated at 37° C. for 1 hour. A plate containing a standard curve (0.1 to 1.5 milliunits in triplicate) was set up for each experimental run. The plates were analyzed on a Molecular Devices spectrophotometric plate reader at 410 nm. The optical densities for the unknown were converted to milliunits of activity by mathematical extrapolation from the standard curve.
The luciferase data was generated as relative light units (RLUs) accumulated during a 10 second measurement and automatically transferred to a JMP (SAS Inc) file where background RLUs were subtracted. The B-galactosidase values were automatically imported into the file and these values were divided into the RLUs to normalize the data. The mean and standard deviations were determined from a n=8 for each treatment. […] These techniques are described by Tzukerman, M. T., Esty, A., Santiso-Mere, D., Danielian, P., Parker, M. G., Stein, R. B., Pike, J. W. and McDonnel, D. P. (1994). Human estrogen receptor transactivational capacity was determined by both cellular and promoter context and mediated by two functionally distinct intramolecular regions (see Molecular Endocrinology, 8:21-30).

estrogen receptor [2] = molecular target: T1, estrogen receptor; test: In Vitro Estrogen Receptor Binding Assay ([3H]-17β-estradiol competition, cytosol of CHO cells overexpressing the estrogen receptor); design: made in house; host or cells: CHO cells overexpressing the receptor; 100,000 g cytosol
Experimental: In Vitro Estrogen Receptor Bonding Assay
CHO cells overexpressing the estrogen receptor were grown in 150 mm^2 dishes in DMEM+10% dextran coated charcoal, stripped fetal bovine serum. The plates were washed twice with PBS and once with 10 mM Tris-HCl, pH 7.4, 1 mM EDTA. Cells were harvested by scraping the surface and then the cell suspension was placed on ice. Cells were disrupted with a hand-held motorized tissue grinder using two, 10-second bursts. […] The cytosol was then frozen and stored at -80° C. Protein concentration of the cytosol was estimated using the BCA assay with reference standard protein.
100 uG/100 uL of the receptor preparation was aliquoted per well. […] The plate was incubated at room temperature for 2.5 h. […] 200 uL of the supernatant solution was then removed for scintillation counting. Samples were counted to 2% or 10 minutes, whichever occurs first. […] Also, wells containing radioactivity but no cytosol were processed with charcoal to estimate unremovable DPM of [^3 H] […].
Counts per minute (CPM) of radioactivity were automatically converted to disintegrated per minute (DPM) by the Beckman LS 7500 Scintillation Counter using a set of quenched standards to generate a H# for each sample.
((DPM sample-DPM not removed by charcoal)/(DPM estradiol-DPM not removed by charcoal))×100%=% of estradiol binding
For the generation of IC50 curves, % binding is plotted vs compound. […] For a description of these methods, see Hulme, E. C., ed. […] Receptor-Ligand Interactions: A Practical Approach. IRL Press, New York (see especially chapter 8).

ovariectomized rat = conditions: background, cited from earlier work
bone = conditions: background; cited from earlier work
uterus = conditions: background; cited from earlier work

Row | SMILES | % Activation (Compound ± 1 nM 17β-estradiol) (alkaline phosphatase) (Ishikawa cells) | % Activation (alkaline phosphatase) (Ishikawa cells) | uterine wet weight, 100 μG plus 1 μG 17β-Estradiol (uteri; 100 μG compound + 1 μG 17β-estradiol, estradiol alone: Example 11 group 90.8, Examples 14/15 group 95.5 mg) | % Activation with 1 nM 17β-estradiol (luciferase) (estrogen receptor [1]; 1 uM compound + 1 nM 17β-estradiol, 24 h (antagonism)) | activation at 1 µM (estrogen receptor [1]; CHO, 24 h) | Estrogen Receptor Affinity (RBA) (estrogen receptor [2]) | ability to spare bone (in words) (ovariectomized rat) | stimulation of uterine growth (in words) (ovariectomized rat; compared with Tamoxifen) | uterine wet weight, 10 μG (uteri; 10 μG compound, controls: tamoxifen/raloxifene 42.7, Example 7 20.2, Example 12 31.4, Example 11 24.5, Examples 14/15 29.1 mg) | uterine wet weight, 100 μG (uteri; 100 μG compound, controls: tamoxifen/raloxifene 42.7, Example 7 20.2, Example 12 31.4, Example 11 24.5, Examples 14/15 29.1 mg) | effect on the bone in humans (in words) (bone) | effect in the uterus (in words) (uterus)
1 | CCCCN(CCCC)C(=O)/C=C/c1ccc(Cn2c(-c3ccc(O)cc3)c(C)c3cc(O)ccc32)cc1 [Example 11, (E)-N,N-Dibutyl-3-{4-[5-hydroxy-2-(4-hydroxy-phenyl)-3-methyl-indol-1-ylmethyl]-phenyl}-acrylamide] | 11% | 6% | 81.0 mg | 12% | 8% | 80 |  |  |  |  |  | 
2 | O=C(c1ccc(OCCN2CCCCC2)cc1)c1c(-c2ccc(O)cc2)sc2cc(O)ccc12 [raloxifene] |  | 5% |  |  |  |  | maintaining the ability to spare bone | stimulate uterine growth in the ovariectomized rat to a lesser extent than Tamoxifen |  |  |  | 
3 | CC/C(=C(\c1ccccc1)c1ccc(OCCN(C)C)cc1)c1ccccc1 [tamoxifen] | 45% | 0% |  |  |  |  |  |  | 69.6 mg | 71.4 mg | estrogen agonist like effect on the bone | partial agonist in the uterus
